Measurements published in US20100249184A1, “INDUCTION AND/OR MAINTENANCE OF TUMOR DORMANCY BY DISRUPTION OF UROKINASE PLASMINOGEN ACTIVATOR RECEPTOR-INTEGRIN INTERACTION” (MOUNT SINAI SCHOOL OF MEDICINE, priority 2007, published 2010).

How the values were obtained:
T-HEp3 cells [1] = assay: P-ERK/ERK Western blotting after peptide treatment; assay type: cell-based, human
From the text: FIGS. 6A-E show ERK activation and growth in vivo. In FIG. 6A, HEK293 and D-Hep3 cells transfected with uPAR^wt produces stronger activation of ERK than cells transfected with uPAR^S245A or with vector (top and middle panels); HEK293, and D-HEp3 cells, transiently transfected with pcDNA3.1 vector, or with an expression construct for uPAR^wt or uPAR^S245A lysed 48 hrs later and analyzed by Western blotting for phospho-ERK (FIG. 6A, top panels) and ERK 1/2 (FIG. 6A, middle panels) with specific antibodies. The bands were scanned with NIH Image and plotted. The ratio of phospho-ERK to ERK was calculated and expressed as a fraction of the ratio of pcDNA3.1 transfected cells. In FIG. 6A (bottom panels), uPAR^wt and uPAR^S245A expression was determined by Western blotting. […] D-HEp3 cells transfected with vector, or uPAR^wt or uPAR^S245A were detached with EDTA 36 hrs after transfection and 7×10^5 cells in 30 μl PBS were inoculated onto chorioallantoic membranes (“CAMs”) of 10-day old chick embryos. Each sample was inoculated onto 4 CAMs. The CAMs were excised 4 days later and the number of tumor cells was determined as in the Examples. The bars show mean and standard deviation. Paired t-test vector/uPAR^S245A p=0.76, vector/uPAR^wt p=0.0005, uPAR^S245/uPAR^wt p=0.0002. Inset: uPAR expression detected by Western blot with R2 antibody. In FIG. 6C, peptide 240-248, but not peptide 17-24, down regulates P-ERK level. T-HEp3 cells were serum-starved and treated in serum-free medium with 25 μM of peptides 240-248 and 17-24 for 45 min and 3 hrs. The cells were lysed and the lysates were analyzed for P-ERK (FIG. 6C, upper panel) and total ERK (FIG. 6C, lower panel) by Western blotting. FIG. 6D is a graph showing that S245A mutant peptide has no effect on ERK activation. T-HEp3 cells were treated with 5, 20, and 40 μM peptides 240-248 ([…]), 17-24 (▪), and S245A (▾) for 1 hr. The cells were processed as in FIG. 6C, except that the bands were scanned by NIH Image the P-ERK/ERK ratio was calculated. […] Sub-confluent T-ELK:GFP cells grown in 48-well plate and serum-starved overnight were incubated with the uPAR peptides 240-248 at 5 and 25 μM and with 17-24 peptide at 25 μM for 40 hrs at 37° C. in serum-free medium. The cells were detached and analyzed for GFP in FACS Canto using FACSDiva software. The numbers represent GFP-positive cells as percent of total. The dose-response for peptide 240-248 and highest concentration of peptides 17-24 and S245A were repeated two additional times with similar results.
To test the effect of uPAR/integrin inhibiting peptides on ERK activity, T-HEp3 cells transfected with two plasmids that report through GFP level on the state of ERK activation and designated T-ELK (Aguirre-Ghiso et al., Cancer Res. 63:1684-1695 (2003), which is hereby incorporated by reference in its entirety) were plated in 48-well plates, serum-starved overnight, and treated (in duplicates) with 5 and 25 μM of uPAR-derived synthetic peptides (240-248) or 25 μM (17-24) in DMEM for 42 hrs. Untreated cells served as positive control and cells not expressing GFP as negative control. The cells were detached and analyzed for GFP by FACS analysis using FACS Canto (Becton Dickinson, Calif.) and FACSDiva software. Alternatively, T-HEp3 cells, serum-starved overnight were incubated in serum-free medium with 5, 20, and 40 μM of uPAR-derived synthetic peptide 240-248, 17-24, or S245A for 1 hr or with 25 μM peptide 240-248 and 17-24 for 10 min, 45 min, and 3 hrs at 37° C. The cells were lysed in RIPA buffer and processed as described above. Concentration dependence of P-ERK inhibition was analyzed by scanning P-ERK and ERK bands with NIH-Image and expressing their ratios as % of the ratio in untreated control (T-HEp3) cells.

T-HEp3 cells [2] = assay: Adhesion assay to fibronectin, T-HEp3 cells; assay type: cell-based, human; conditions: peptide 20 or 200 μM, 15 min
[3] = 25 μM peptide, 45 and 180 min, serum-starved
[4] = 25 μM peptide, 10 min, serum-starved

Row | Substance | P-ERK level (T-HEp3 cells [1]; [3]) | P-ERK level (T-HEp3 cells [1]; [4]) | P-ERK level (T-HEp3 cells [1]; 5, 20 and 40 μM peptide, 1 hr) | adhesion to fibronectin (T-HEp3 cells [2])
1 | peptide 17-24: synthetic uPAR-derived peptide, domain I amino acid 17-24: CALGQDLC (SEQ ID NO:5); negative control [reference compound] | minimal or no effect | only a minor effect | minor and inconsistent effects | no effect
2 | peptide 240-248: synthetic uPAR-derived peptide, domain III residues 240-248: GCATASMCQ (SEQ ID NO:9) | strong reduction in P-ERK level | only a minor effect | reduced P-ERK level in a dose-dependent fashion | reduced adhesion to fibronectin
